Six compounds from patent US5244917A, “Substituted naphthofurans as anti-inflammatory agents” (The DuPont Merck Pharmaceutical Company, priority 1992, dated 1993) can be followed below.

SMILES strings stand for the structures.

One test deals with A23187-induced ear edema. The experiment in a line: A23187 Ear Edema Model (murine ear edema protocol). Type of test: in vivo, mouse (male CF-1). As to conditions: 100 μg/ear topical in acetone; A23187 10 μg/ear; 6 h; 6 mm punch biopsy weight. The procedure:
To measure anti-inflammatory activities of the investigational compounds the following standard murine ear edema protocol was used. Edema was induced by the calcium ionophore, A23187 (10 μg/ear) [Marks, F., Furstenberger, G., Kownatzki, E., Prostaglandin E Mediated Stimulation of Mouse Epidermis in vivo by Divalent Cation Ionophore A23187 and by Tumor Promotor TPA, Cancer Res., 41, 696-702 (1981)]. Male CF-1 (Charles River) 18-20 grams were used. Investigational compounds (in acetone at 100 μg/ear) were applied to one ear just prior to application of the inflammagen (A23187). Six hours after A23187 application, edema was determined by comparing the weights of 6 mm punch biopsies from control (solvent) and inflammagen-treated ears. Percent inhibition was calculated using standard equations.

For the next test, the system named is Platelet phospholipase C. The experiment in a line: Platelet Phospholipase C Assay. Type of test: biochemical. The settings on record: 100,000×g supernatant extract of platelet cells; 3H phosphatidylinositol substrate; mantissa only, the power of ten is printed apart; read-out: PLC IC50. The procedure: Platelet phospholipase C was measured using a 100,000×g supernatant extract of platelet cells as the enzyme preparation. The assay mixture consisted of (in final concentrations): ^3 H myoinositol phosphatidylinositol, ([…], 0.1Ci), CaCl2 (5 mM), Tris acetate buffer (60 mM, pH 4.5-7.5), sodium deoxycholate (2 mg/ml), platelet supernatant protein heated at 100° C. for 5 min (1 mg/ml), all in a total volume of […].
The assay was performed according to the method of Rittenhouse [Rittenhouse, S., Preparation of Selectively Labeled Phosphoinositol and Assay of Phosphoinositol-specific Phospholipase C in Methods in Enzymology, Lands, W. and Smith, W., eds., 86, 3-11 (1982)]. The hydrolysis of substrate to water soluble product was calculated on the basis of the specific activity of the substrate. The activity of the compounds was expressed as the percent inhibition of control (no compound) PLC hydrolysis. […] Arachidonic acid is the precursor of inflammagens such as leukotrienes and prostaglandins which are involved in the mediation of the inflammatory process.

In the case of `N#Cc1c(N)oc2c1c(Cc1ccc(F)cc1)c(O)c1ccccc12` [Example 4, 2-amino-4-(4-fluoro)benzyl-3-cyano-5-hydroxynaphtho[1,2-b]furan], the A23187 % inhibition with A23187-induced ear edema was 58%. In the test with Platelet phospholipase C, the IC50 was determined as 120 µM. For `COc1ccc2c(c1)c(O)c(Cc1ccccc1)c1c(C#N)c(N)oc12` [Example 11, 2-amino-4-benzyl-3-cyano-5-hydroxy-7-methoxynaphtho[1,2-b]furan] the same measures were 82% and 190 µM. Take `COc1ccc2c(O)c(Cc3ccccc3)c3c(C#N)c(N)oc3c2c1` [Example 12, 2-amino-4-benzyl-3-cyano-5-hydroxy-8-methoxynaphtho[1,2-b]furan]: the IC50 in the test with Platelet phospholipase C was found to be 55 µM.

Regarding `COc1ccc2c(O)c(Cc3ccccc3F)c3c(C#N)c(N)oc3c2c1` [Example 16, 2-amino-4-(2-fluoro)benzyl-3-cyano-5-hydroxy-8-methoxynaphtho[1,2-b]furan], the IC50 in the test on Platelet phospholipase C was found to be 56 µM. Take `N#Cc1c(N)oc2c1c(Cc1ccccc1F)c(O)c1ccccc12` [Example 2, 2-amino-4-(2-fluoro)benzyl-3-cyano-5-hydroxynaphtho[1,2-b]furan]: the A23187 % inhibition in the test with A23187-induced ear edema was 71%. For the same compound, the IC50 in the test on Platelet phospholipase C stood at 26 µM.

The compound `N#Cc1c(N)oc2c1c(Cc1ccccc1)c(O)c1ccccc12` [Example 1, 2-Amino-4-benzyl-3-cyano-5-hydroxynaphtho[1,2-b]furan] showed an A23187 % inhibition in the test on A23187-induced ear edema of 83%. Further, the IC50 with Platelet phospholipase C amounted to 15 µM.
